According to US20210255193A1, “LYSINE REACTIVE PROBES AND USES THEREOF” (The Scripps Research Institute, priority 2017, published 2021):
Each block holds one molecule with its values, some of them ahead of it.

Legend:
Test in all cases: competitive isoTOP-ABPP
Format in all cases: binding
[1] = target: T1, LDHB L-lactate dehydrogenase B chain (Homo sapiens, UniProt P07195)
T1 construct: isoTOP-ABPP experiments performed in cell lysates (in vitro); endogenous in cells; host or cells: MDA-MB-231 soluble lysate
Summary of the method: (§1)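 Here, isoTOP-ABPP measures loss of STP-alkyne labeling at individual lysines after fragment exposure in lysate. Activated esters are dosed at 50 μM, guanidinylating agents at 100 μM; the probe follows at 0.1 mM for 1 h. R ≥4 marks a liganded lysine.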

[2] = target: T2, IMPDH1 Inosine-5-monophosphate dehydrogenase 1 (Homo sapiens, UniProt P20839); conditions: for isoTOP-ABPP ratio (R) at liganded lysine P20839_K208: sol, 231
T2 construct: isoTOP-ABPP experiments performed in cell lysates (in vitro); endogenous in cells; host or cells: soluble proteome of human cancer cell lines (MDA-MB-231; Ramos and Jurkat also prepared)
Summary of the method: as §1

[3] = target: T3, MRPL12 39S ribosomal protein L12, mitochondrial (Homo sapiens, UniProt P52815); conditions: for isoTOP-ABPP ratio (R) at liganded lysine P52815_K87: sol, 231; for isoTOP-ABPP ratio, lysine P52815_K87: 50 uM_231_sol_in vitro, possible other lysine B4DLN1_K87, P52815_K91
T3 construct: isoTOP-ABPP experiments performed in cell lysates (in vitro); endogenous in cells; host or cells: soluble proteome of human cancer cell lines (MDA-MB-231, Ramos, Jurkat)
Summary of the method: as §1

[4] = target: T4, GABARAPL2 Gamma-aminobutyric acid receptor-associated protei (Homo sapiens, UniProt P60520); conditions: for isoTOP-ABPP ratio (R) at liganded lysine P60520_K46: sol, 231
T4 construct: isoTOP-ABPP experiments performed in cell lysates (in vitro); endogenous in cells; host or cells: soluble proteome of human cancer cell lines (MDA-MB-231, Ramos, Jurkat)
Summary of the method: as §1

[5] = target: T5, LRRC20 Leucine-rich repeat-containing protein 20 (Homo sapiens, UniProt Q8TCA0); conditions: for isoTOP-ABPP ratio (R) at liganded lysine Q8TCA0_K43: sol, 231; for isoTOP-ABPP ratio, lysine Q8TCA0_K43: 100 uM_231_sol_in vitro
T5 construct: isoTOP-ABPP experiments performed in cell lysates (in vitro); endogenous in cells; host or cells: soluble proteome of human cancer cell lines (MDA-MB-231; Ramos and Jurkat also prepared)
T5 sequence (Q8TCA0 1-184): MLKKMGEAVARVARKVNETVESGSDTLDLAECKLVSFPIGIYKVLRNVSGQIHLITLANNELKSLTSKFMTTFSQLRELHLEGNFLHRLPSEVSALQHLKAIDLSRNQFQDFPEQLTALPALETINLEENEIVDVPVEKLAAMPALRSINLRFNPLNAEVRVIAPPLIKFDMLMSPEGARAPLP
Summary of the method: as §1

[6] = target: T6, FH Fumarate hydratase, mitochondrial (Homo sapiens, UniProt P07954)
T6 construct: isoTOP-ABPP experiments performed in cell lysates (in vitro); endogenous in cells; host or cells: MDA-MB-231 soluble lysate
T6 sequence (P07954 45-510): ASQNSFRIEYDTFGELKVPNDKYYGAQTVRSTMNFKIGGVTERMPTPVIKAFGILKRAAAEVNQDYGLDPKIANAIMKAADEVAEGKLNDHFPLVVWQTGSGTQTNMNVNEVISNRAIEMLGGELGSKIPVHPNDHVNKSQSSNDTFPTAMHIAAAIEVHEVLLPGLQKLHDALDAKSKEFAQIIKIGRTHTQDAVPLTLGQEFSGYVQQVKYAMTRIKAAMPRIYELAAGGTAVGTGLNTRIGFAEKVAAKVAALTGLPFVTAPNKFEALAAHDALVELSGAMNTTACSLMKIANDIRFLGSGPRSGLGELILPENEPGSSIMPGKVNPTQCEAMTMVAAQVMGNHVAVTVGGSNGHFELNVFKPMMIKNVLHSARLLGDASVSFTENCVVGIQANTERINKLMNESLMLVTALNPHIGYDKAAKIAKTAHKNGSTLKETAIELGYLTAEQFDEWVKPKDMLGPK
Summary of the method: as §1

[7] = target: T7, DTYMK Thymidylate kinase (Homo sapiens, UniProt P23919); conditions: for isoTOP-ABPP ratio, lysine P23919_K118: 50 uM_231_sol_in vitro
T7 construct: isoTOP-ABPP experiments performed in cell lysates (in vitro); endogenous in cells; host or cells: soluble proteome of human cancer cell lines (MDA-MB-231; Ramos and Jurkat also prepared)
T7 sequence (P23919 1-212): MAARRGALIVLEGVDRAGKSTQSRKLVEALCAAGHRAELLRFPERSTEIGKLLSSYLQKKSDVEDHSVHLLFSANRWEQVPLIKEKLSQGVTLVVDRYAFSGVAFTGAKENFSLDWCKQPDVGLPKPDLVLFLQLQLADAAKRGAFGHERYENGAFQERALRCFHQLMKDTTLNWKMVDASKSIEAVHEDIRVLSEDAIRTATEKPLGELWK
Summary of the method: as §1

T2 sequence (P20839 whole entry): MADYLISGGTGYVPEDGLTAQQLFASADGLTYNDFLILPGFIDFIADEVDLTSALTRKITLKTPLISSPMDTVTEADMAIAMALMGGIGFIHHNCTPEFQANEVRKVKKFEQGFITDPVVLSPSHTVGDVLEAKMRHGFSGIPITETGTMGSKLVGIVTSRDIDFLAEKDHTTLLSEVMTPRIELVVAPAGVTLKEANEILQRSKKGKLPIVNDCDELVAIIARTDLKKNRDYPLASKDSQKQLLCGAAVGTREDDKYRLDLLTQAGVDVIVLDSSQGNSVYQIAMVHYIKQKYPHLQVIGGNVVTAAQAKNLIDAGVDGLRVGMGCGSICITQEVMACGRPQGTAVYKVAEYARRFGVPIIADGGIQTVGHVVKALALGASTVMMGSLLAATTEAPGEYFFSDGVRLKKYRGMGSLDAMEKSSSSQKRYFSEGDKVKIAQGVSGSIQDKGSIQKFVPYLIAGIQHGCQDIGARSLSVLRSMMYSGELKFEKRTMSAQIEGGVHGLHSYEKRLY
T4 sequence (P60520 1-116 limits assumed): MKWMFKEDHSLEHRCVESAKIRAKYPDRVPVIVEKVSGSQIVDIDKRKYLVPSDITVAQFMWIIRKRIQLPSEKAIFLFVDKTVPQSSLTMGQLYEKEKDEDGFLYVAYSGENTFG
T1 sequence (P07195 whole entry): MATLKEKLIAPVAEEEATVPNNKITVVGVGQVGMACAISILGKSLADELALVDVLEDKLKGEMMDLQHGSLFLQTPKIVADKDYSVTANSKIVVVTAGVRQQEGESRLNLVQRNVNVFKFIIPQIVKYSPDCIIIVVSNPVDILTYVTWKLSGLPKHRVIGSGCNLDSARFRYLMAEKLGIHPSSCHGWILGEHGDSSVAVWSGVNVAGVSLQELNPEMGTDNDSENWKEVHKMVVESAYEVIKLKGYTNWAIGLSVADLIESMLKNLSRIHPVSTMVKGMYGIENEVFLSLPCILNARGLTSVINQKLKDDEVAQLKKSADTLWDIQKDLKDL

SMILES: O=C(Oc1ccc([N+](=O)[O-])cc1[N+](=O)[O-])C(c1ccccc1)(c1ccccc1)c1ccccc1 [fragment 42, 2,4-Dinitrophenyl 2,2,2-triphenylacetate]
- isoTOP-ABPP ratio (R) at liganded lysine P07195_K82 ([1]; 50 uM, in vitro, sol, 231): 20.0
- isoTOP-ABPP ratio (R) at liganded lysine P20839_K208 ([2]; 50 uM, in vitro): 1.2
- isoTOP-ABPP ratio (R) at liganded lysine P52815_K87 ([3]; 50 uM, in vitro): 1.0
- isoTOP-ABPP ratio (R) at liganded lysine P60520_K46 ([4]; 50 uM, in vitro): 0.9
- isoTOP-ABPP ratio (R) at liganded lysine Q8TCA0_K43 ([5]; 50 uM, in vitro): 1.3

- R value (DMSO/fragment) for probe 1 labeling ([6]; P07954_K311, 50 uM, 231 sol, in vitro): 1.3
- R value (DMSO/fragment) for probe 1 labeling ([1]; P07195_K244, 50 uM, 231 sol, in vitro): 1.0
- R value (DMSO/fragment) for probe 1 labeling ([3]; P52815_K87, 50 uM, 231 sol, in vitro): 0.6
- R value (DMSO/fragment) for probe 1 labeling ([4]; P60520_K46, 50 uM, 231 sol, in vitro): 0.8
- R value (DMSO/fragment) for probe 1 labeling ([7]; P23919_K118, 50 uM, 231 sol, in vitro): 0.8
- R value (DMSO/fragment) for probe 1 labeling ([5]; Q8TCA0_K43, 50 uM, 231 sol, in vitro): 1.0
SMILES: O=C(Oc1c(F)c(F)c(F)c(F)c1F)c1cc(C(F)(F)F)cc(C(F)(F)F)c1 [fragment 21, Pentafluorophenyl 3,5-bis(trifluoromethyl)benzoate]

SMILES: O=C(CCc1cn(-c2ccccc2)nc1-c1ccccc1)Oc1ccc([N+](=O)[O-])cc1[N+](=O)[O-] [fragment 29, 2,4-Dinitrophenyl 3-(1,3-diphenyl-1H-pyrazol-4-yl)propanoate]
- isoTOP-ABPP reactivity ratio at lysine P20839_K208 ([2]; 50 uM, 231 sol, in vitro): 1.3
- isoTOP-ABPP reactivity ratio at lysine P52815_K87 ([3]; 50 uM, 231 sol, in vitro): 1.1
- isoTOP-ABPP reactivity ratio at lysine P60520_K46 ([4]; 50 uM, 231 sol, in vitro): 0.9
- isoTOP-ABPP reactivity ratio at lysine P23919_K118 ([7]; 50 uM, 231 sol, in vitro): 1.1
- isoTOP-ABPP reactivity ratio at lysine Q8TCA0_K43 ([5]; 50 uM, 231 sol, in vitro): 1.3

SMILES: O=C(CC12CC3CC(CC(C3)C1)C2)Oc1ccc([N+](=O)[O-])cc1[N+](=O)[O-] [fragment 38, 2,4-Dinitrophenyl 2-(adamantan-1-yl)acetate]
- isoTOP-ABPP ratio (R) at liganded lysine P07195_K82 ([1]; 50 uM, in vitro, sol, 231): 0.7
- isoTOP-ABPP ratio (R) at liganded lysine P20839_K208 ([2]; 50 uM, in vitro): 1.2
- isoTOP-ABPP ratio (R) at liganded lysine P52815_K87 ([3]; 50 uM, in vitro): 0.9
- isoTOP-ABPP ratio (R) at liganded lysine P60520_K46 ([4]; 50 uM, in vitro): 1.0

- isoTOP-ABPP ratio, lysine P07195_K82 ([1]; 100 uM_231_sol_in vitro): 0.9
- isoTOP-ABPP ratio, lysine P07195_K244 ([1]; 100 uM_231_sol_in vitro): 1.1
- isoTOP-ABPP ratio, lysine P20839_K208 ([2]; 100 uM_231_sol_in vitro): 20.0
- isoTOP-ABPP ratio, lysine P60520_K46 ([4]; 100 uM_231_sol_in vitro): 20.0
- isoTOP-ABPP ratio, lysine Q8TCA0_K43 [5]: 1.3
SMILES: CC(C)(C)OC(=O)N=C(NC(=O)OC(C)(C)C)n1cccn1 [fragment 50, reference compound]

SMILES: O=C(CCc1coc2cc(F)ccc2c1=O)Oc1ccc([N+](=O)[O-])cc1[N+](=O)[O-] [fragment 36, 2,4-Dinitrophenyl 3-(7-fluoro-4-oxo-4H-chromen-3-yl)propanoate]
- isoTOP-ABPP ratio (R) at liganded lysine P07195_K82 ([1]; 50 uM, in vitro, sol, 231): 0.9
- isoTOP-ABPP ratio (R) at liganded lysine P07195_K244 ([1]; 50 uM, in vitro, sol, 231): 20.0
- isoTOP-ABPP ratio (R) at liganded lysine P20839_K208 ([2]; 50 uM, in vitro): 1.6
- isoTOP-ABPP ratio (R) at liganded lysine Q8TCA0_K43 ([5]; 50 uM, in vitro): 1.1

- isoTOP-ABPP ratio, lysine P07954_K311 ([6]; 50 uM_231_sol_in vitro): 1.4
- isoTOP-ABPP ratio, lysine P07195_K244 ([1]; 50 uM_231_sol_in vitro): 1.0
- isoTOP-ABPP ratio, lysine P20839_K208 ([2]; 50 uM_231_sol_in vitro): 1.2
- isoTOP-ABPP ratio, lysine P52815_K87 [3]: 1.1
- isoTOP-ABPP ratio, lysine P60520_K46 ([4]; 50 uM_231_sol_in vitro): 1.0
- isoTOP-ABPP ratio, lysine P23919_K118 [7]: 0.9
SMILES: O=C(Oc1c(F)c(F)c(C(F)(F)F)c(F)c1F)c1cc(C(F)(F)F)cc(C(F)(F)F)c1 [fragment 47, 2,3,5,6-Tetrafluoro-4-(trifluoromethyl)phenyl 3,5-bis(trifluoromethyl)benzoate]

- isoTOP-ABPP ratio, lysine P20839_K208 ([2]; 100 uM_231_sol_in vitro): 4.4
- isoTOP-ABPP ratio, lysine P60520_K46 ([4]; 100 uM_231_sol_in vitro): 1.9
- isoTOP-ABPP ratio, lysine Q8TCA0_K43 [5]: 14.0
SMILES: COC(=O)NC(=NC(=O)OCC1c2ccccc2-c2ccccc21)n1cccn1 [fragment 49, N-Methoxycarbonyl-N′-9-fluorenylmethoxycarbonyl-pyrazole-1-carboxamidine]

- isoTOP-ABPP ratio, lysine P52815_K87 [3]: 0.9
- isoTOP-ABPP ratio, lysine P60520_K46 ([4]; 50 uM_231_sol_in vitro): 0.9
- isoTOP-ABPP ratio, lysine P23919_K118 [7]: 0.6
SMILES: O=C(Oc1c(F)c(F)cc(F)c1F)c1cc(C(F)(F)F)cc(C(F)(F)F)c1 [fragment 48, 2,3,5,6-Tetrafluorophenyl 3,5-bis(trifluoromethyl)benzoate]
